Test results reported in PMC12177760, “In Silico Discovery of a Novel Antiviral Scaffold for SARS-CoV‑2 Targeting the Spike Glycoprotein through the Fatty Acid Binding Pocket” (ACS Omega, 2025).

System: SARS-CoV-2 Delta variant in Vero E6 cells
Assay: microbe, parasite or virus in culture
Format: cell-based

SMILES: CC(c1ccc(-n2cncn2)cc1)N(C)C(=O)CCC(=O)N1CCC(c2ccccc2)=N1 (centres unmarked) [compound 36]
- EC50 (Severe acute respiratory syndrome coronavirus 2, Vero C1008, read-out: EC50 (inhibition of Delta variant-induced CPE)): 5.77 µM
- inhibition at 33 µM (Severe acute respiratory syndrome coronavirus 2, Vero C1008, 33 μM, read-out: maximum inhibition of CPE): 78%
